Patent US20180185324A1, “NOVEL CANNABINOID COMBINATION THERAPIES FOR MULTIPLE MYELOMA (MM)” (ONE WORLD CANNABIS LTD, priority 2015, published 2018)
Like-named read-outs stand apart in the source and are kept apart here.

Tested on: RPMI8226 multiple myeloma (MM) human cell lines
Test: Cytotoxic effect of CBD, THC and combinations on RPMI8226 cells
Assay type: cell-based
Conditions: for IC50: Homo sapiens; for survival of MM cells (in words): concentration dependent manner, FIG. 2; for survival of RPMIS MM cells: concentration of about 20 μM and higher
Protocol: This example examines the cytotoxic effect of CBD alone, THC alone and combinations of both compounds. The cytotoxic effect of CBD, THC and their combinations in different ratios such as CBD: THC 1:1; CBD: THC 5:1 and CBD: THC 1:5 were evaluated on RPMI8226 multiple myeloma (MM) human cell lines. Reference is now made to FIG. 2 which presents a graph of RPMIS MM cell line survival (%) vs. concentration (μM).

Row | SMILES | IC50 (RPMI-8226, RPMI8226 (RPMIS) MM cells, read-out: dose that caused 50% of MM cell death) | survival of MM cells (in words) | survival of RPMIS MM cells | IC50 (RPMI-8226, read-out: dose that caused 50% of MM cell death)
1 | C=C(C)[C@@H]1CCC(C)=C[C@H]1c1c(O)cc(CCCCC)cc1O [CBD, cannabidiol] | 16 µM | decreased the survival | about 50% | –
2 | CCCCCc1cc(O)c2c(c1)OC(C)(C)[C@@H]1CCC(C)=C[C@@H]21 [THC, Tetrahydrocannabinol] | – | decreased the survival | about 50% | 22 µM
